# Source: PMC10605077, “In Vitro and In Silico Antiviral Activity of Di-Halogenated Compounds Derived from L-Tyrosine against Human Immunodeficiency Virus 1 (HIV-1)” (Current Issues in Molecular Biology, 2023)
# “Also recorded” adds a separate entry of the source.
# Tested on: HIV-1IIIB (X4)
# Assay: Anti-HIV activity in infected TZM-bl cells (luciferase), pre- and post-infection treatment
# Assay type: cell-based, Human Immunodeficiency Virus Type 1 (HIV-1)
# Conditions: HIV-1IIIB, TZM-bl cells
# Procedure: (§1) TZM-bl cells were plated in a flat-bottom 96-well plate (Corning Inc., Corning, New York, NY, USA) at the concentration of 1.2 × 10^5 cells/well and incubated for 24 h at 37 °C before the addition or not of each compound at non-cytotoxic concentrations (pre-infection treatment). Then, 1 h later the treatment was removed, and the infection was performed by adding 10 ng/mL of HIV-1IIIB p24 (X4) or 2 ng/mL of HIV-1 BaL (R5). After 3 h, the virus was removed and washed, and the compound dilutions were added again (post-infection treatment). Additionally, three wells were left for the negative control (cells without treatment or infection), the positive control of infection (cells infected with the virus without treatment), and the positive control of inhibition (AZT). Antiviral activity was quantified 48 h after treatment by measuring luciferase activity, which is directly proportional to the number of infectious virus particles in the sample [23]. The luciferase activity was quantified via luminescence emitted by the cells using Bright-GloTM Luciferase Assay System (Promega Corp., Madison, WI, USA), following the manufacturer’s instructions. Briefly, 100 μL of the reagent was added to 100 μL of TZM-bl cells and incubated for at least 2 min, protected from light. Relative light units (RLUs) were measured using the multi-mode plate reader (Thermo ScientificTM VarioskanTM LUX). Each experimental condition was performed in triplicate in two independent experiments (n = 6). The percentage inhibition was calculated as follows: 100 − (RLU of treated cells − RLU of uninfected cells/RLU of infection control − RLU of uninfected cells) × 100.
row,Compound,anti-HIV activity against X4 strain in words
1,C[N+](C)(C)[C@@H](Cc1cc(Br)c(O)c(Br)c1)C(=O)O [TDB-3M],did not inhibit the replicative activity
2,COc1c(Br)cc(C[C@@H](C(=O)O)[N+](C)(C)C)cc1Br [TODB-3M],showed no activity
3,CN(C)CCc1cc(Br)c(O)c(Br)c1 [YDB-2M],had no antiviral activity
4,CN(C)CCc1cc(Cl)c(O)c(Cl)c1 [YDC-2M],had no activity

# Same assay, conditions: Human immunodeficiency virus 1, TZM-bl, 18 µM, TZM-bl cells; read-out: Percentage inhibition of HIV-1IIIB (X4 strain) replication
row,Compound,inhibition at 18 µM
1,C[N+](C)(C)[C@@H](Cc1cc(Br)c(O)c(Br)c1)C(=O)O [TDB-3M],2.7%
2,COc1c(Br)cc(C[C@@H](C(=O)O)[N+](C)(C)C)cc1Br [TODB-3M],12%
3,COc1c(Cl)cc(CC[N+](C)(C)C)cc1Cl [YODC-3M],3.2%

# Same assay, conditions: Human immunodeficiency virus 1, TZM-bl, 37 µM, TZM-bl cells; read-out: Percentage inhibition of HIV-1IIIB (X4 strain) replication
row,Compound,inhibition at 37 µM
1,C[N+](C)(C)[C@@H](Cc1cc(Br)c(O)c(Br)c1)C(=O)O [TDB-3M],21.6%
2,COc1c(Br)cc(C[C@@H](C(=O)O)[N+](C)(C)C)cc1Br [TODB-3M],-41.1%
3,COc1c(Cl)cc(CC[N+](C)(C)C)cc1Cl [YODC-3M],-5.8%

# Same assay, conditions: Human immunodeficiency virus 1, TZM-bl, 75 µM, TZM-bl cells; read-out: Percentage inhibition of HIV-1IIIB (X4 strain) replication
row,Compound,inhibition at 75 µM
1,C[N+](C)(C)[C@@H](Cc1cc(Br)c(O)c(Br)c1)C(=O)O [TDB-3M],-15.7%
2,COc1c(Br)cc(C[C@@H](C(=O)O)[N+](C)(C)C)cc1Br [TODB-3M],3.2%
3,COc1c(Cl)cc(CC[N+](C)(C)C)cc1Cl [YODC-3M],-8.6%

# Same assay, conditions: Human immunodeficiency virus 1, TZM-bl, 150 µM, TZM-bl cells; read-out: Percentage inhibition of HIV-1IIIB (X4 strain) replication
row,Compound,inhibition at 150 µM
1,C[N+](C)(C)[C@@H](Cc1cc(Br)c(O)c(Br)c1)C(=O)O [TDB-3M],-22.4%
2,COc1c(Br)cc(C[C@@H](C(=O)O)[N+](C)(C)C)cc1Br [TODB-3M],-34%
3,COc1c(Cl)cc(CC[N+](C)(C)C)cc1Cl [YODC-3M],0.5%

# Same assay, conditions: Human immunodeficiency virus 1, TZM-bl, read-out: Percentage inhibition of HIV-1IIIB (X4 strain) replication
Compound,inhibition at 18 µM,inhibition at 37 µM,inhibition at 75 µM,inhibition at 150 µM
CN(C)CCc1cc(Br)c(O)c(Br)c1 [YDB-2M],14.6%,-7%,9.8%,-20.7%
CN(C)CCc1cc(Cl)c(O)c(Cl)c1 [YDC-2M],15.1%,-22%,22.6%,29.1%
COc1c(Br)cc(CCN(C)C)cc1Br [YODB-2M],-24.6%,-20%,-20.2%,-17%
COc1c(Cl)cc(CCN(C)C)cc1Cl [YODC-2M],-0.3%,2.3%,-2.2%,2.5%

# Tested on: HIV-1 BaL (R5)
# Assay: as above
# Assay type: cell-based, Human Immunodeficiency Virus Type 1 (HIV-1)
# Conditions: HIV-1 BaL, TZM-bl cells
# Procedure: as §1
row,Compound,anti-HIV activity against R5 strain in words
1,C[N+](C)(C)[C@@H](Cc1cc(Br)c(O)c(Br)c1)C(=O)O [TDB-3M],did not inhibit the replicative activity
2,COc1c(Br)cc(C[C@@H](C(=O)O)[N+](C)(C)C)cc1Br [TODB-3M],showed no activity
3,CN(C)CCc1cc(Br)c(O)c(Br)c1 [YDB-2M],had no antiviral activity; also recorded: did not show significant anti-HIV activity
4,CN(C)CCc1cc(Cl)c(O)c(Cl)c1 [YDC-2M],had no activity

# Same assay, conditions: Human immunodeficiency virus 1, BAL, TZM-bl, read-out: Percentage inhibition of HIV-1 BaL replication
Compound,inhibition at 18 µM,inhibition at 37 µM,inhibition at 75 µM,inhibition at 150 µM
CN(C)CCc1cc(Br)c(O)c(Br)c1 [YDB-2M],26.1%,2.7%,7%,-45.8%
CN(C)CCc1cc(Cl)c(O)c(Cl)c1 [YDC-2M],-4.1%,8.8%,19.1%,-2.8%
COc1c(Br)cc(CCN(C)C)cc1Br [YODB-2M],-51.1%,-73.9%,-88.5%,-14.9%
COc1c(Cl)cc(CCN(C)C)cc1Cl [YODC-2M],24.5%,12.2%,26.9%,-96.2%

# Same assay, conditions: Human immunodeficiency virus 1, BAL; 18 µM, TZM-bl cells; read-out: Percentage inhibition of HIV-1 BaL replication
row,Compound,inhibition at 18 µM
1,C[N+](C)(C)[C@@H](Cc1cc(Br)c(O)c(Br)c1)C(=O)O [TDB-3M],-20.5%
2,COc1c(Br)cc(C[C@@H](C(=O)O)[N+](C)(C)C)cc1Br [TODB-3M],-26%
3,COc1c(Cl)cc(CC[N+](C)(C)C)cc1Cl [YODC-3M],-19.7%

# Same assay, conditions: Human immunodeficiency virus 1, BAL; 37 µM, TZM-bl cells; read-out: Percentage inhibition of HIV-1 BaL replication
row,Compound,inhibition at 37 µM
1,C[N+](C)(C)[C@@H](Cc1cc(Br)c(O)c(Br)c1)C(=O)O [TDB-3M],-9.6%
2,COc1c(Br)cc(C[C@@H](C(=O)O)[N+](C)(C)C)cc1Br [TODB-3M],-43.3%
3,COc1c(Cl)cc(CC[N+](C)(C)C)cc1Cl [YODC-3M],-7.7%

# Same assay, conditions: Human immunodeficiency virus 1, BAL; 75 µM, TZM-bl cells; read-out: Percentage inhibition of HIV-1 BaL replication
row,Compound,inhibition at 75 µM
1,C[N+](C)(C)[C@@H](Cc1cc(Br)c(O)c(Br)c1)C(=O)O [TDB-3M],-18%
2,COc1c(Br)cc(C[C@@H](C(=O)O)[N+](C)(C)C)cc1Br [TODB-3M],-17.7%
3,COc1c(Cl)cc(CC[N+](C)(C)C)cc1Cl [YODC-3M],-1%

# Same assay, conditions: Human immunodeficiency virus 1, BAL; 150 µM, TZM-bl cells; read-out: Percentage inhibition of HIV-1 BaL replication
row,Compound,inhibition at 150 µM
1,C[N+](C)(C)[C@@H](Cc1cc(Br)c(O)c(Br)c1)C(=O)O [TDB-3M],-61.9%
2,COc1c(Br)cc(C[C@@H](C(=O)O)[N+](C)(C)C)cc1Br [TODB-3M],-9.2%
3,COc1c(Cl)cc(CC[N+](C)(C)C)cc1Cl [YODC-3M],-1.3%
